According to US8959984B2, “Proteome-wide quantification of small molecule binding to cellular target proteins” (priority 2007, dated 2015):
Where “and” joins values, the source holds several entries; their conditions need not be identical. Equal values may be shown once.

Key:
Assay in all cases: binding to AX14596 beads (HeLa lysate, SILAC MS)
ALK2 (ACVR1) = target: T1, ALK2 (ACVR1) (Homo sapiens, UniProt Q04771)
T1 sequence (Q04771 21-509): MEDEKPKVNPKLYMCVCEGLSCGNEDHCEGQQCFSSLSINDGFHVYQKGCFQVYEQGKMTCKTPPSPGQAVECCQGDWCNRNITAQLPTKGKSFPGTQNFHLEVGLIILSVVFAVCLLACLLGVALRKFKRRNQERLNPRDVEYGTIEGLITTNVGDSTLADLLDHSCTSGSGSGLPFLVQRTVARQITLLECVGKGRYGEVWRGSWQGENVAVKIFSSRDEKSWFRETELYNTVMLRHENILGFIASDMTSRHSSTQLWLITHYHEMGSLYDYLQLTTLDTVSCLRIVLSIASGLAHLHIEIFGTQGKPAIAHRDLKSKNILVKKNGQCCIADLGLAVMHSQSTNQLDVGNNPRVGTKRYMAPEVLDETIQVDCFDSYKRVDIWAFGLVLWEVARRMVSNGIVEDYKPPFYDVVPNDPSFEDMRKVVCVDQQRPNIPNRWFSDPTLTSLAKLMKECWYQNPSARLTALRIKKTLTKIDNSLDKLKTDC

BRK (PTK6) = target: T2, BRK (PTK6) (Homo sapiens, UniProt Q13882)
T2 construct: endogenous in cells; host or cells: HeLa S3

CDA = target: T3, CDA (Homo sapiens, UniProt P32320)
T3 construct: endogenous in cells; host or cells: HeLa S3

EGFR = target: T4, EGFR (Homo sapiens, UniProt P00533)
T4 construct: endogenous in cells; host or cells: HeLa S3

IGF2BP1 = IGF2BP1 (Homo sapiens, UniProt Q9NZI8)
JNK2 (MAPK9) = JNK2 (MAPK9) (Homo sapiens, UniProt P45984)
LYN = LYN (Homo sapiens, UniProt P07948)
MET = MET (Homo sapiens, UniProt P08581)
PKD3 (PRKD3) = target: T5, PKD3 (PRKD3) (Homo sapiens, UniProt O94806)
T5 construct: endogenous in cells; host or cells: HeLa S3

YES (YES1) = target: T6, YES (YES1) (Homo sapiens, UniProt P07947)
T6 construct: endogenous in cells; host or cells: HeLa S3
T6 sequence (P07947 whole entry): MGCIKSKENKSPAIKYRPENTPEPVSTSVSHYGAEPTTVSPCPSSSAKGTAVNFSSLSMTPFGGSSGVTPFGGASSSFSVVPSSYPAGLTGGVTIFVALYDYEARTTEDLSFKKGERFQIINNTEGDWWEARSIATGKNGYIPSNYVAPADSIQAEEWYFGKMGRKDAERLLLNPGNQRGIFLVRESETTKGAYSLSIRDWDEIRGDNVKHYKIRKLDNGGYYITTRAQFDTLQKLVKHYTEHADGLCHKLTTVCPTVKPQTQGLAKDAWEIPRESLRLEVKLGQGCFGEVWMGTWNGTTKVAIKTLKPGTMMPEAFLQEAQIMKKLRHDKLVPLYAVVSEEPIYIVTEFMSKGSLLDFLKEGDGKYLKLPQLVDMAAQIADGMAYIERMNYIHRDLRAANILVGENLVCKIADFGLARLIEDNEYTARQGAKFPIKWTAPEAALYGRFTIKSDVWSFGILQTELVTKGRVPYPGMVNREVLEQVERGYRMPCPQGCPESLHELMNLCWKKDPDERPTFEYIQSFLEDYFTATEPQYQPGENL

T3 sequence (P32320 whole entry): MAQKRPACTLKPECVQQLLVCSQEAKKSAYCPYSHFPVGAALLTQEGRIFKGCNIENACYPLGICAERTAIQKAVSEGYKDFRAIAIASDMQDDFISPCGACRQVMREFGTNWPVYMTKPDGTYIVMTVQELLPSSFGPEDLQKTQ
T2 sequence (Q13882 whole entry): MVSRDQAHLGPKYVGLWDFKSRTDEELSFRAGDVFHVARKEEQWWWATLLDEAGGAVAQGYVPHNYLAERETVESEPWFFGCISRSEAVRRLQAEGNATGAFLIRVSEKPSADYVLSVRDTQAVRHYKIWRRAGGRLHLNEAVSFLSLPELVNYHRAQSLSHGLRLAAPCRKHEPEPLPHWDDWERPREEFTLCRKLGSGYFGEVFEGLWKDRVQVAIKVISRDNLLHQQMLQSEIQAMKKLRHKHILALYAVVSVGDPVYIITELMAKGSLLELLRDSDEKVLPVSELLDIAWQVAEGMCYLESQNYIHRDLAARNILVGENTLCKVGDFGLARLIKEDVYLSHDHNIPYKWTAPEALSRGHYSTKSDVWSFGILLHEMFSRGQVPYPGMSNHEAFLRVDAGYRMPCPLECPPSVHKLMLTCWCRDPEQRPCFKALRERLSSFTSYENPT
T4 sequence (P00533 25-1210): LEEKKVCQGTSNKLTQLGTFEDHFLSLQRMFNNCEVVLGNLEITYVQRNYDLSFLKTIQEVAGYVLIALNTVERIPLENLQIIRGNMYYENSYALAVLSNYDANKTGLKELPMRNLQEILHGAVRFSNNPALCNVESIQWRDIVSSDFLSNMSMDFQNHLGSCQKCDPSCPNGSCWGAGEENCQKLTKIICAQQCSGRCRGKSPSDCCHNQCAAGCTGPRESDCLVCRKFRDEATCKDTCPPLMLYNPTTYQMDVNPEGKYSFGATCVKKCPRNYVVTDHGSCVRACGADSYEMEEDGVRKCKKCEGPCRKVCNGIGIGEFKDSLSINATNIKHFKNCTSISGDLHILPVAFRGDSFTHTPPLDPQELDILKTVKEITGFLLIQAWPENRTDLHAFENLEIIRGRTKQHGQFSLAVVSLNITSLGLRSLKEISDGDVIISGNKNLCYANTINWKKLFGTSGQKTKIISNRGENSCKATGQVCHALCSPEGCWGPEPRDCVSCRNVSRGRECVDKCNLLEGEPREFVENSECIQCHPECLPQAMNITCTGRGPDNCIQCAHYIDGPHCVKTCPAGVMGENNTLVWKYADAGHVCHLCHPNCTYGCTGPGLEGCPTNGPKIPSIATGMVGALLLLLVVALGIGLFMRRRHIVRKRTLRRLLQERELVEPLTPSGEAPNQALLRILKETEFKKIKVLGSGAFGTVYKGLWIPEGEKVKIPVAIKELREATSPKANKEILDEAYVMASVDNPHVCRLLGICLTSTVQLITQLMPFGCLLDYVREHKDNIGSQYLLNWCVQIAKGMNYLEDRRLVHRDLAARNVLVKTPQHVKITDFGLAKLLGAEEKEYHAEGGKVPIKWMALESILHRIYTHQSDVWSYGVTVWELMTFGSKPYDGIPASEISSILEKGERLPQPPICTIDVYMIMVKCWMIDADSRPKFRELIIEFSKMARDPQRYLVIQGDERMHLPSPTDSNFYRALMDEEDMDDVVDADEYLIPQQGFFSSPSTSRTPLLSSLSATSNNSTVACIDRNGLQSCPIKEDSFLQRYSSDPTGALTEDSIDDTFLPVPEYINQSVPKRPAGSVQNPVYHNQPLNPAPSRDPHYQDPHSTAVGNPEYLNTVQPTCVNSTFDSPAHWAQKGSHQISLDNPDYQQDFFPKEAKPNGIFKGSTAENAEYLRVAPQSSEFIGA
Chain of IGF2BP1 (Q9NZI8 whole entry): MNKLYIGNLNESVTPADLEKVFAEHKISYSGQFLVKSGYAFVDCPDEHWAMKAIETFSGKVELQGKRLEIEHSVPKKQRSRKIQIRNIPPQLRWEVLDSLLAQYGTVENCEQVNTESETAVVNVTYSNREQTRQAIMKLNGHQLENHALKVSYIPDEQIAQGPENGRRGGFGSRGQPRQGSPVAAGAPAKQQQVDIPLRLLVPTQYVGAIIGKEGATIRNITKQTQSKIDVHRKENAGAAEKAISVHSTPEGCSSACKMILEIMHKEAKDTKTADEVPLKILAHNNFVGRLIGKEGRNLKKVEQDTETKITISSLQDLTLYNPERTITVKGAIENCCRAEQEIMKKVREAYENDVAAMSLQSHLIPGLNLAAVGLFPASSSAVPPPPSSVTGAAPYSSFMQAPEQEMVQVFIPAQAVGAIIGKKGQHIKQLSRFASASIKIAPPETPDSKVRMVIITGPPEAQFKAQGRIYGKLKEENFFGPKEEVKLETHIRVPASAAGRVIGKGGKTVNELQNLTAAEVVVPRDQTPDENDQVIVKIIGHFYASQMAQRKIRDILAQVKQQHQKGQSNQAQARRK
Chain of JNK2 (MAPK9) (P45984 whole entry): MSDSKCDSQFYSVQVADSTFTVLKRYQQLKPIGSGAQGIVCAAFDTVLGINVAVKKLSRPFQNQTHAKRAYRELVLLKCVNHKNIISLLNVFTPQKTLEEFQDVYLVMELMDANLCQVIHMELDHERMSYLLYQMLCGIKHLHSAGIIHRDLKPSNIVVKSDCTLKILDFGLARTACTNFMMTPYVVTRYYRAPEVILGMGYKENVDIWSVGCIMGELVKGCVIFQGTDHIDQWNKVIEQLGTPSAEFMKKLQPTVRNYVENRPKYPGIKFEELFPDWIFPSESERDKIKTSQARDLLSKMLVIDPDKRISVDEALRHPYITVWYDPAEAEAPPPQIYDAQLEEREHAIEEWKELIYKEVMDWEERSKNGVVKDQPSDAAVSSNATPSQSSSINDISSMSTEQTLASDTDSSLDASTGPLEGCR
Chain of LYN (P07948 whole entry): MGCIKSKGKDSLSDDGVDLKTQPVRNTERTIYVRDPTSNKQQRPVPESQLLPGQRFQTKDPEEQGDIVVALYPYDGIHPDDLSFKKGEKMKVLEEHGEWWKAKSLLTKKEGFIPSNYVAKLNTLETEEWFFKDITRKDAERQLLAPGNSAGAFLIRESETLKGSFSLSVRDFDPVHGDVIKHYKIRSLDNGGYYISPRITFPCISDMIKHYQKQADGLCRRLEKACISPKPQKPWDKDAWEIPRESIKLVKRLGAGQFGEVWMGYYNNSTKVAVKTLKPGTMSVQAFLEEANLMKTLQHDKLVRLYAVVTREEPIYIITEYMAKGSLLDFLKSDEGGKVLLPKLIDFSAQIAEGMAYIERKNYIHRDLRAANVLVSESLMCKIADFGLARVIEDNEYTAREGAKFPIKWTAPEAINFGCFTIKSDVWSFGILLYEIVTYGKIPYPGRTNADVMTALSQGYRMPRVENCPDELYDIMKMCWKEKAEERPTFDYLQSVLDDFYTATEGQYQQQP
T5 sequence (O94806 whole entry): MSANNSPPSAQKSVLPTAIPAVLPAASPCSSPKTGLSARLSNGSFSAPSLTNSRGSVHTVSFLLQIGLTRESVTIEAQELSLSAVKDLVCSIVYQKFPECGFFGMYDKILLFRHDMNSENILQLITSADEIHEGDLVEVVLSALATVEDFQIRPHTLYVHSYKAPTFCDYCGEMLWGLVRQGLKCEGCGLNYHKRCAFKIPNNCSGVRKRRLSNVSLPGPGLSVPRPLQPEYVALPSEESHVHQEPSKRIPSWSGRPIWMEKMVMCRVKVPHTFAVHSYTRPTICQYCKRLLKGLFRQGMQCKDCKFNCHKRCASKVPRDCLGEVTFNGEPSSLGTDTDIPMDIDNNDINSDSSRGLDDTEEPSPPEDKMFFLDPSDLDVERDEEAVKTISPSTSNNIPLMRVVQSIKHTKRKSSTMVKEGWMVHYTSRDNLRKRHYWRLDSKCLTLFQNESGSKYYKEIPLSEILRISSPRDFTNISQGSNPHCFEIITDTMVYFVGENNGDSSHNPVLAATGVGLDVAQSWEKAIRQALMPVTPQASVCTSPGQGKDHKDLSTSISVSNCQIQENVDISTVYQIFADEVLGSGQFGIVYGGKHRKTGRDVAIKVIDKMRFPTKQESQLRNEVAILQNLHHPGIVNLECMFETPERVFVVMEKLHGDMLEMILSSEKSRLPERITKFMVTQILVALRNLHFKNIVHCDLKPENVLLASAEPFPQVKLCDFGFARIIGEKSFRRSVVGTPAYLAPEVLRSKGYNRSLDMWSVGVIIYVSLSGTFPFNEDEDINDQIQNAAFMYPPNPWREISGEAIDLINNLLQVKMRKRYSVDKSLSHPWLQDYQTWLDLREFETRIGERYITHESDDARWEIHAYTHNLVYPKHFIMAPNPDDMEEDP

## COc1cc2ncnc(Nc3ccc(F)c(Cl)c3)c2cc1OCCCN [AX14596]
ALK2 (ACVR1)
  Ki: 202 µM
  r (3 mg/1 mg lysate): 2.57
  r (5 h/2.5 h inc. time): 1.17
  rAVERAGE (2. inc/1. inc): 0.67
  rAVERAGE (control/1. inc): 0.15
BRK (PTK6)
  Ki: 45 µM and 45.4 µM
  r (3 mg/1 mg lysate): 2.56
  r (5 h/2.5 h inc. time): 0.96
  rAVERAGE (2. inc/1. inc): 0.31
  rAVERAGE (control/1. inc): 0.02
BRK (PTK6); bound to AX14596 beads
  % BOUND: 69%
CDA
  Ki: 402 µM
  r (3 mg/1 mg lysate): 3.09
  rAVERAGE (2. inc/1. inc): 0.80
  rAVERAGE (control/1. inc): 0.09
EGFR
  Ki: 44 µM and 44.5 µM
  r (3 mg/1 mg lysate): 2.65
  r (5 h/2.5 h inc. time): 0.90
  rAVERAGE (2. inc/1. inc): 0.31
  rAVERAGE (control/1. inc): 0.03
EGFR; bound to AX14596 beads
  % BOUND: 69%
IGF2BP1
  Ki: 367 µM
  rAVERAGE (2. inc/1. inc): 0.79
  rAVERAGE (control/1. inc): 0.19
JNK2 (MAPK9)
  Ki: 110 µM
  r (3 mg/1 mg lysate): 2.58
  r (5 h/2.5 h inc. time): 0.95
  rAVERAGE (2. inc/1. inc): 0.52
  rAVERAGE (control/1. inc): 0.03
JNK2 (MAPK9); bound to AX14596 beads
  % BOUND: 48%
LYN
  Ki: 195 µM
  r (3 mg/1 mg lysate): 2.14
  r (5 h/2.5 h inc. time): 0.98
  rAVERAGE (2. inc/1. inc): 0.66
  rAVERAGE (control/1. inc): 0.07
LYN; bound to AX14596 beads
  % BOUND: 34%
MET
  Ki: 267 µM
  r (3 mg/1 mg lysate): 2.30
  r (5 h/2.5 h inc. time): 1.12
  rAVERAGE (2. inc/1. inc): 0.73
  rAVERAGE (control/1. inc): 0.06
MET; bound to AX14596 beads
  % BOUND: 27%
PKD3 (PRKD3)
  Ki: 1510 µM
  r (3 mg/1 mg lysate): 2.49
  r (5 h/2.5 h inc. time): 1.05
  rAVERAGE (2. inc/1. inc): 0.94
  rAVERAGE (control/1. inc): 0.08
YES (YES1)
  Ki: 658 µM
  r (3 mg/1 mg lysate): 2.03
  r (5 h/2.5 h inc. time): 0.98
  rAVERAGE (2. inc/1. inc): 0.87
  rAVERAGE (control/1. inc): 0.05
YES (YES1); bound to AX14596 beads
  % BOUND: 13%
